In article PMC11188305, “Reproductive and fetal toxicity studies of histamine H3 receptor antagonist DL76 used in mice to prevent maximal electroshock-induced seizure” (Frontiers in Pharmacology, 2024):

System: C57/B6 mouse embryos
Assay: Reproductive studies: maternal, fetal and gross/visceral malformation observations after treatment on GD-8 or GD-13
Format: in vivo
Conditions: for Placental weight, IUGR −1SD / Placental weight, IUGR −2SD: fraction (percentage); for Fetal weight, IUGR −1SD / Fetal weight, IUGR −2SD: fraction of fetuses (percentage); for Number of female embryos / Number of male embryos: number (percentage); for Exomphalos / Eye open / Kinky tail / Left/right kidney hypo/descended / Mandible hypoplasia / Maxilla hypoplasia / Microtia/low set microtia / Undescended testis: number of embryos (percentage); for Live fetus/litter / Resorption/litter: parentheses contain percentages
Method: Reproductive studies were conducted in adult female mice, averaging 30 gm in weight and 6 weeks in age ([Padmanabhan et al., 2006]; [Bastaki et al., 2018]). Following successful mating, indicated by vaginal plug observation, the plug-positive day was considered gestation day 0 (GD-0). DL76 was administered at various doses (7.5 mg/kg, 15 mg/kg, 30 mg/kg, and 60 mg/kg) through single i.p. injections and three 15 mg/kg injections in 1 day to mouse groups on GD-8 and GD-13 (Tables 1, 2). The control group was injected with normal saline. Appropriate formation of different organs occurs in specific periods of the development of the mouse. These two periods were selected because GD-8 is known to be a critical period for the induction of neural tube defects, craniofacial malformations, and the development of other organs, whereas on GD-13, the retina and other parts are being formed, and most other organs have been formed. The number of implantations, fetal deaths, and resorptions was recorded. Fetal and placental weights were documented separately. After blotting dry, the fetuses were weighed and fixed in 95% ethanol. The reproductive toxicological effects of DL76 were assessed by observing gross and visceral malformations, following [Sterz and Lehmann (1985)], [Abdulrazzaq et al. (1997)], [Padmanabhan et al. (2003)], and [Padmanabhan et al. (2006)].
Deformities of the embryos were identified according to a modified method of [Sterz and Lehmann (1985)], [Abdulrazzaq et al. (1997)], and [Bass et al. (2020)]. Accordingly, the embryos were removed from the 95% ethanol, and the lower part of the abdomen was cut using a razor blade. All organs were checked for abnormalities with a stereo dissecting microscope, and finally, the organs were removed by using forceps.
Statistical analyses employed SPSS 26.0 (IBM Middle East, Dubai, UAE). Data were presented as means ± SEM. […] Fetal abnormality data were presented as counts and percentages. Fisher’s exact test compared the percentages of abnormalities between the control group (saline) and the different dose groups. All tests were two-tailed, and significance was set at p < 0.05.

CC(C)(C)c1ccc(OCCCN2CCCCC2)cc1 [DL76, 1-(3-(4-tert-butyl-phenoxy)propyl) piperidine]
Fetal weight/Litter (g) (Mean ± SD) (7.5 mg/kg i.p. on GD-8): 1.143 ± 0.107 g
Fetuses/litter (7.5 mg/kg i.p. on GD-8): 7.714 ± 1.890
Placental weight/Litter (g) (mean ± SD) (7.5 mg/kg i.p. on GD-8): 0.109 ± 0.11 g
Placental weight, IUGR −1SD (7.5 mg/kg i.p. on GD-8): 0
Placental weight, IUGR −2SD (7.5 mg/kg i.p. on GD-8): 0
Fetal weight, IUGR −1SD (7.5 mg/kg i.p. on GD-8): 0
Fetal weight, IUGR −2SD (7.5 mg/kg i.p. on GD-8): 0
Number of female embryos (7.5 mg/kg i.p. on GD-8): 19 (43.2)
Number of male embryos (7.5 mg/kg i.p. on GD-8): 25 (56.8)
Exomphalos (7.5 mg/kg i.p. on GD-8): 0
Eye open (7.5 mg/kg i.p. on GD-8): 2 (4.5)
Kinky tail (7.5 mg/kg i.p. on GD-8): 0
Left/right kidney hypo/descended (7.5 mg/kg i.p. on GD-8): 1 (2.3)
Mandible hypoplasia (7.5 mg/kg i.p. on GD-8): 3 (6.8)
Maxilla hypoplasia (7.5 mg/kg i.p. on GD-8): 3 (6.8)
Microtia/low set microtia (7.5 mg/kg i.p. on GD-8): 2 (4.5)
Undescended testis (7.5 mg/kg i.p. on GD-8): 2 (4.5)
Live fetus/litter (7.5 mg/kg i.p. on GD-8): 6.289 (81.48)
Resorption/litter (7.5 mg/kg i.p. on GD-8): 1.429 (18.51)
Fetal weight Litter (g) (Mean ± SD) (7.5 mg/kg i.p. on GD-13): 1.018 ± 0.103 g
Fetuses/litter (7.5 mg/kg i.p. on GD-13): 8.000 ± 1.291
Placental weight/Litter (g) (mean ± SD) (7.5 mg/kg i.p. on GD-13): 0.105 ± 0.011 g
Placental weight, IUGR −2SD (7.5 mg/kg i.p. on GD-13): 0
Fetal weight, IUGR −2SD (7.5 mg/kg i.p. on GD-13): 0
Number of female embryos (7.5 mg/kg i.p. on GD-13): 27 (54.0)
Number of male embryos (7.5 mg/kg i.p. on GD-13): 23 (46.0)
Exomphalos (7.5 mg/kg i.p. on GD-13): 0
Eye open (7.5 mg/kg i.p. on GD-13): 3 (6.0)
Kinky tail (7.5 mg/kg i.p. on GD-13): 0
Left/right kidney hypo/descended (7.5 mg/kg i.p. on GD-13): 2 (4.0)
Mandible hypoplasia (7.5 mg/kg i.p. on GD-13): 4 (8.0)
Microtia/low set microtia (7.5 mg/kg i.p. on GD-13): 2 (4.0)
Undescended testis (7.5 mg/kg i.p. on GD-13): 1 (2.0)
Maxilla hypoplasia (7.5 mg/kg i.p. on GD-13, * p < 0.05 vs control): 4 (8.0)*
Resorption/litter (7.5 mg/kg i.p. on GD-13): 0.857 (10.71)
Fetal weight/Litter (g) (Mean ± SD) (15 mg/kg i.p. on GD-8): 0.993 ± 0.106 g
Fetuses/litter (15 mg/kg i.p. on GD-8): 7.167 ± 2.317
Placental weight/Litter (g) (mean ± SD) (15 mg/kg i.p. on GD-8): 0.105 ± 0.009 g
Placental weight, IUGR −1SD (15 mg/kg i.p. on GD-8): 0
Placental weight, IUGR −2SD (15 mg/kg i.p. on GD-8): 0
Fetal weight, IUGR −1SD (15 mg/kg i.p. on GD-8): 0
Number of female embryos (15 mg/kg i.p. on GD-8): 20 (52.6)
Number of male embryos (15 mg/kg i.p. on GD-8): 18 (47.4)
Exomphalos (15 mg/kg i.p. on GD-8): 1 (2.6)
Eye open (15 mg/kg i.p. on GD-8): 3 (7.9)
Kinky tail (15 mg/kg i.p. on GD-8): 0
Left/right kidney hypo/descended (15 mg/kg i.p. on GD-8): 2 (5.3)
Mandible hypoplasia (15 mg/kg i.p. on GD-8): 3 (7.9)
Maxilla hypoplasia (15 mg/kg i.p. on GD-8): 1 (2.6)
Microtia/low set microtia (15 mg/kg i.p. on GD-8): 1 (2.6)
Undescended testis (15 mg/kg i.p. on GD-8): 0
Live fetus/litter (15 mg/kg i.p. on GD-8): 6.338 (88.37)
Resorption/litter (15 mg/kg i.p. on GD-8): 0.833 (11.62)
Fetal weight Litter (g) (Mean ± SD) (15 mg/kg i.p. on GD-13): 0.998 ± 0.063 g
Fetuses/litter (15 mg/kg i.p. on GD-13): 7.571 ± 1.272
Placental weight/Litter (g) (mean ± SD) (15 mg/kg i.p. on GD-13): 0.113 ± 0.015 g
Placental weight, IUGR −2SD (15 mg/kg i.p. on GD-13): 0
Fetal weight, IUGR −2SD (15 mg/kg i.p. on GD-13): 0
Number of female embryos (15 mg/kg i.p. on GD-13): 18 (45.0)
Number of male embryos (15 mg/kg i.p. on GD-13): 22 (55.0)
Exomphalos (15 mg/kg i.p. on GD-13): 0
Eye open (15 mg/kg i.p. on GD-13): 2 (5.0)
Kinky tail (15 mg/kg i.p. on GD-13): 0
Left/right kidney hypo/descended (15 mg/kg i.p. on GD-13): 1 (2.5)
Mandible hypoplasia (15 mg/kg i.p. on GD-13): 4 (10.0)
Maxilla hypoplasia (15 mg/kg i.p. on GD-13): 3 (7.5)
Microtia/low set microtia (15 mg/kg i.p. on GD-13): 2 (5.0)
Undescended testis (15 mg/kg i.p. on GD-13): 1 (2.5)
Live fetus/litter (15 mg/kg i.p. on GD-13): 5.714 (75.47)
Resorption/litter (15 mg/kg i.p. on GD-13): 1.857 (24.53)
Fetal weight/Litter (g) (Mean ± SD) (30 mg/kg i.p. on GD-8): 1.004 ± 0.047 g
Fetuses/litter (30 mg/kg i.p. on GD-8): 8.429 ± 0.787
Placental weight/Litter (g) (mean ± SD) (30 mg/kg i.p. on GD-8): 0.097 ± 0.019 g
Fetal weight, IUGR −2SD (30 mg/kg i.p. on GD-8): 0
Number of female embryos (30 mg/kg i.p. on GD-8): 27 (52.9)
Number of male embryos (30 mg/kg i.p. on GD-8): 24 (47.1)
Exomphalos (30 mg/kg i.p. on GD-8): 1 (2.0)
Eye open (30 mg/kg i.p. on GD-8): 2 (3.9)
Kinky tail (30 mg/kg i.p. on GD-8): 1 (2.0)
Mandible hypoplasia (30 mg/kg i.p. on GD-8): 3 (5.9)
Microtia/low set microtia (30 mg/kg i.p. on GD-8): 2 (3.9)
Undescended testis (30 mg/kg i.p. on GD-8): 0
Maxilla hypoplasia (30 mg/kg i.p. on GD-8, * p < 0.05 vs control): 2 (3.9)*
Live fetus/litter (30 mg/kg i.p. on GD-8): 7.286 (86.44)
Resorption/litter (30 mg/kg i.p. on GD-8): 1.143 (13.56)
Fetal weight Litter (g) (Mean ± SD) (30 mg/kg i.p. on GD-13): 1.069 ± 0.082 g
Fetuses/litter (30 mg/kg i.p. on GD-13): 7.000 ± 1.155
Placental weight/Litter (g) (mean ± SD) (30 mg/kg i.p. on GD-13): 0.103 ± 0.006 g
Placental weight, IUGR −2SD (30 mg/kg i.p. on GD-13): 0
Fetal weight, IUGR −2SD (30 mg/kg i.p. on GD-13): 0
